Test results: patent US10722520B2, “Heterocyclic compounds and their use in preventing or treating bacterial infections” (MUTABILIS, priority 2016, dated 2020)
Counter-ions that a name gives are not always drawn. Like-named read-outs stand apart in the source and are kept apart here.

Experiments:
OXA-48 = OXA-48 (Klebsiella pneumoniae, UniProt Q6XEC0)
CTX-M-15 = CTX-M-15 (Escherichia coli, UniProt Q9EXV5)
OXA-11 = OXA-11 (Pseudomonas aeruginosa, UniProt Q06778)
K. pneumoniae BAA-1898 = test: MIC of compound alone, broth microdilution; assay type: cell-based; details: Klebsiella pneumoniae, BAA1898; strain BAA-1898; compound alone; read-out: MIC compounds of the invention alone
Protocol: (§1) Log phase bacterial suspensions were adjusted to a final density of 5×10^5 cfu/mL in cation-adjusted Mueller-Hinton broth (Becton-Dickinson) and added to each well (98 μL). Microplates were incubated for 16-20 h at 35° C. in ambient air. The MIC of the compounds was defined as the lowest concentration of said compounds that prevented bacterial growth as read by visual inspection.

K. pneumoniae 6299 = test: MIC of compound alone, broth microdilution; assay type: cell-based; details: Klebsiella pneumoniae; strain 6299; compound alone; read-out: MIC compounds of the invention alone
Protocol: as §1

P. aeruginosa CIP107051 = test: MIC of compound alone, broth microdilution; assay type: cell-based; details: Pseudomonas aeruginosa; strain CIP107051; compound alone; read-out: MIC compounds of the invention alone
Protocol: as §1

E. cloacae P99 = test: MIC of compound alone, broth microdilution; assay type: cell-based; details: Enterobacter cloacae; strain P99; compound alone; read-out: MIC compounds of the invention alone
Protocol: as §1

E. coli 190317 = test: MIC of compound alone, broth microdilution; assay type: cell-based; details: Escherichia coli; strain 190317; compound alone; read-out: MIC compounds of the invention alone
Protocol: as §1

OXA-1 = OXA-1 (Escherichia coli, UniProt P13661)
CMY-37 = CMY-37 (Citrobacter freundii, UniProt P05193); details: read-out: IC50 β-lactamase CMY-37
AmpC (P99) = AmpC (P99) (Enterobacter cloacae, UniProt P05364); test: biochemical
AmpC (PAE) = AmpC (PAE) (Pseudomonas aeruginosa, UniProt P24735); test: biochemical
KPC-2 = KPC-2 (Klebsiella pneumoniae, UniProt Q9F663)
OXA-15 = OXA-15 (Pseudomonas aeruginosa, UniProt Q51574); test: biochemical
TEM-1 = TEM-1 (Escherichia coli, UniProt P62593)
SHV-1 = SHV-1 (Klebsiella pneumoniae, UniProt P0AD64)
[1] = class (C), nitrocefin 200 μM, 30-min pre-incubation, enzyme 0.2 nM

Structure (SMILES) | IC50 (OXA-48) | IC50 (CTX-M-15) | IC50 (OXA-11) | MIC (K. pneumoniae BAA-1898) | MIC (K. pneumoniae 6299) | MIC (P. aeruginosa CIP107051) | MIC (E. cloacae P99) | MIC (E. coli 190317) | IC50 (OXA-1) | IC50 (CMY-37) | IC50 (AmpC (P99)) | IC50 (AmpC (PAE)) | IC50 (KPC-2) | IC50 (OXA-15) | IC50 (TEM-1) | IC50 (SHV-1) | IC50 (CMY-37; [1])
CC(=O)c1cnn(C2=CC3CN(C2)C(=O)N3OS(=O)(=O)[O-])c1.[Na+] (stereo not drawn) [Example 40, sodium [3-(4-acetylpyrazol-1-yl)-7-oxo-1,6-diazabicyclo[3.2.1]oct-3-en-6-yl]sulfate] | 6.3 nM | 0.91 nM | 95 nM | > 32 µg/mL | > 32 µg/mL | > 32 µg/mL | > 32 µg/mL | 32 µg/mL | 150 nM | 8.3 nM | 7.5 nM | 260 nM | 3.4 nM | 8.6 nM | 0.35 nM | 1.8 nM | –
O=C(NC1CCNCC1)c1ccn(C2=CC3CN(C2)C(=O)N3OS(=O)(=O)O)n1 (stereo not drawn) [Example 32, (7-oxo-3-[3-(4-piperidylcarbamoyl)pyrazol-1-yl]-1,6-diazabicyclo[3.2.1]oct-3-en-6-yl) hydrogen sulfate] | 1.5 nM | 1 nM | 27 nM | 16 µg/mL | 32 µg/mL | > 32 µg/mL | 16 µg/mL | 8 µg/mL | 79 nM | – | 29 nM | 210 nM | 6.9 nM | 39 nM | 1.1 nM | 8.2 nM | 59 nM
[2H]c1nn(C2=CC3CN(C2)C(=O)N3OS(=O)(=O)[O-])c([2H])c1[2H].[Na+] (stereo not drawn) [Example 43, sodium [7-oxo-3-(3,4,5-trideuteriopyrazol-1-yl)-1,6-diazabicyclo[3.2.1]oct-3-en-6-yl]sulfate] | 6 nM | 0.87 nM | 39 nM | 8 µg/mL | 8 µg/mL | > 32 µg/mL | 4 µg/mL | 1 µg/mL | 98 nM | 6.4 nM | 12 nM | 9.4 nM | 29 nM | 140 nM | 0.85 nM | 3.6 nM | –
O=C1N2CC(n3ccc(F)n3)=CC(C2)N1OS(=O)(=O)[O-].[Na+] (stereo not drawn) [Example 18, sodium [7-oxo-3-(3-fluoropyrazol-1-yl)-1,6-diazabicyclo[3.2.1]oct-3-en-6-yl]sulfate] | 8.2 nM | 0.65 nM | 46 nM | 8 µg/mL | 4 µg/mL | > 32 µg/mL | 8 µg/mL | 1 µg/mL | 96 nM | 18 nM | 24 nM | 43 nM | 13 nM | 78 nM | 0.43 nM | 2.8 nM | –
O=C1N2CC(n3cc(CNCCO)nn3)=CC(C2)N1OS(=O)(=O)O (stereo not drawn) [Example 67, [3-(4-(2-(methylamino)ethanol)triazol-1-yl)-7-oxo-1,6-diazabicyclo[3.2.1]oct-3-en-6-yl]hydrogen sulfate] | 1.6 nM | 1.3 nM | 250 nM | > 32 µg/mL | > 32 µg/mL | > 32 µg/mL | 4 µg/mL | 2 µg/mL | 270 nM | – | 38 nM | 720 nM | 20 nM | 18 nM | 1.2 nM | 8.4 nM | 100 nM
O=C(Nc1ncco1)c1ccn(C2=CC3CN(C2)C(=O)N3OS(=O)(=O)[O-])n1.[Na+] (stereo not drawn) [Example 37, sodium [7-oxo-3-[3-(oxazol-2-ylcarbamoyl)pyrazol-1-yl]-1,6-diazabicyclo[3.2.1]oct-3-en-6-yl]sulfate] | 2.5 nM | 0.46 nM | 21 nM | > 32 µg/mL | > 32 µg/mL | > 32 µg/mL | > 32 µg/mL | 8 µg/mL | 73 nM | 15 nM | 9.7 nM | 200 nM | 2.9 nM | 32 nM | 0.5 nM | 3.2 nM | –
NC(=O)Cc1ccn(C2=CC3CN(C2)C(=O)N3OS(=O)(=O)[O-])n1.[Na+] (stereo not drawn) [Example 45, sodium [3-[3-(2-amino-2-oxo-ethyl)pyrazol-1-yl]-7-oxo-1,6-diazabicyclo[3.2.1]oct-3-en-6-yl]sulfate] | 18 nM | 1.3 nM | 92 nM | 32 µg/mL | > 32 µg/mL | > 32 µg/mL | 16 µg/mL | 4 µg/mL | 300 nM | 19 nM | 32 nM | 66 nM | 47 nM | 310 nM | 1.4 nM | 4.5 nM | –
O=C1N2CC(n3ncnn3)=CC(C2)N1OS(=O)(=O)[O-].[Na+] (stereo not drawn) [Example 44, sodium [7-oxo-3-(tetrazol-2-yl)-1,6-diazabicyclo[3.2.1]oct-3-en-6-yl]sulfate] | 0.29 nM | 0.86 nM | 20 nM | 4 µg/mL | 4 µg/mL | > 32 µg/mL | 4 µg/mL | 1 µg/mL | 36 nM | 26 nM | 13 nM | 150 nM | 7.3 nM | 32 nM | 0.48 nM | 3.3 nM | –
O=C(NCCN1CCOCC1)c1ccn(C2=CC3CN(C2)C(=O)N3OS(=O)(=O)O)n1 (stereo not drawn) [Example 72, [3-[3-(2-morpholinoethylcarbamoyl)pyrazol-1-yl]-7-oxo-1,6-diazabicyclo[3.2.1]oct-3-en-6-yl]hydrogen sulfate] | 2.5 nM | 0.57 nM | 36 nM | > 32 µg/mL | > 32 µg/mL | > 32 µg/mL | > 32 µg/mL | > 32 µg/mL | 100 nM | – | 43 nM | 540 nM | 7 nM | 43 nM | 0.91 nM | 6.7 nM | 86 nM
COc1cnn(C2=CC3CN(C2)C(=O)N3OS(=O)(=O)[O-])c1.[Na+] (stereo not drawn) [Example 9, sodium [7-oxo-3-(4-methoxypyrazol-1-yl)-1,6-diazabicyclo[3.2.1]oct-3-en-6-yl]sulfate] | 7 nM | 0.5 nM | 310 nM | > 32 µg/mL | > 32 µg/mL | > 32 µg/mL | > 32 µg/mL | > 32 µg/mL | 410 nM | 9.3 nM | 15 nM | 29 nM | 22 nM | 55 nM | 0.41 nM | 1.9 nM | –
O=C1N2CC(n3cc(N4CCNCC4)cn3)=CC(C2)N1OS(=O)(=O)O (stereo not drawn) [Example 42, 2,2,2-trifluoroacetate [7-oxo-3-(4-piperazin-4-ium-1-ylpyrazol-1-yl)-1,6-diazabicyclo[3.2.1]oct-3-en-6-yl]hydrogen sulfate] | 9.1 nM | 0.47 nM | 850 nM | > 32 µg/mL | > 32 µg/mL | > 32 µg/mL | 16 µg/mL | 4 µg/mL | 1600 nM | – | 86 nM | 180 nM | 76 nM | 34 nM | 0.31 nM | 1.5 nM | 59 nM
NC(=O)CNCc1cn(C2=CC3CN(C2)C(=O)N3OS(=O)(=O)O)nn1 (stereo not drawn) [Example 66, [3-(4-(2-(methylamino)acetamide)triazol-1-yl)-7-oxo-1,6-diazabicyclo[3.2.1]oct-3-en-6-yl]hydrogen sulfate] | 0.64 nM | 0.54 nM | 140 nM | 16 µg/mL | 32 µg/mL | > 32 µg/mL | 8 µg/mL | 4 µg/mL | 87 nM | – | 14 nM | 250 nM | 6.1 nM | 7.5 nM | 0.36 nM | 3.1 nM | 26 nM
